Laboratory results taken from patent US9278069B2, “Nanoclusters compositions and methods” (UNIVERSITY OF KANSAS, priority 2005, dated 2016).
Blank lines part the entries; values can stand above or below the compound they belong to.

Key:
[1] = Cascade impaction of diatrizoic acid dry powder and nebulized suspension; format: physicochemical; settings: flow rate ~30 L/min
Experimental: FDA requires characterization of aerosols using cascade impaction, which determines aerosol particle size; indicative of the probable deposition site in the lung. The nanoparticle agglomerate formulation described above was studied using a Tisch Ambient Cascade Impactor. The study was carried out by applying ˜20 mg powder manually into the orifice of the instrument at an air flow rate of […]. Alternatively, the dry powders were suspended in water and applied into the cascade impactor through a nebulizer equipped with an LC Star atomizer. […] Cut-off particle aerodynamic diameters at 30 L/min for each stage of the impactor were: pre-separator (10.00 μm), stage 0 (9.00 μm), stage 1 (5.8 μm), stage 2 (4.7 μm), stage 3 (3.3 μm), stage 4 (2.1 μm), stage 5 (1.1 μm), stage 6 (0.7 μm), stage 7 (0.4 μm) and filter (0 μm). Diatrizoic acid nanoparticle agglomerates deposited on each stage of the impactor were determined by measuring the difference in weight of filters placed on the stages. The percent emitted fraction (% EF) and fine particle fractions of the total dose (FPFTD) were then calculated. In addition, the mass median aerodynamic diameter, MMAD, and geometric standard deviation, GSD, were obtained by a linear fit of the cumulative percent less-than the particle size range by weight plotted on a probability scale as a function of the logarithm of the effective cut-off diameter.

Solubility = format: physicochemical
[2] = Dispersion stability of budesonide in model propellant HPFP; format: physicochemical; settings: dispersed in HPFP
Experimental: A trial run for determining the feasibility of budesonide nanoclusters as Metered Dose Inhaler formulations was performed. Budesonide nanoclusters and pure budesonide (milled) were dispersed in model propellant HPFP (2H, 3H perfluoropentane) and their dispersion stability was analyzed. HPFP has similar physico-chemical properties to MDI propellants such as […]. Previous literature studies indicate that dispersion stability of therapeutic molecules is similar in both HPFP and HFA227ea.

[3] = Aerodynamic diameter by time-of-flight measurement (Aerosizer LD); format: physicochemical; settings: insulin powders
Experimental: (§1) The aerodynamic size distributions of the agglomerate powders were measured directly from lyophilized powder by time-of-flight measurement using an Aerosizer LD (Amherst Instruments) equipped with a 700 mm aperture operating at 6 psi.
as §1, with “The particle size of the dispersed nanoparticle agglomerates as well as the resuspended lyophilized powder was measured using a Coulter Multisizer 3. The” for “The”, “μm” for “mm”
The aerodynamic diameters of the lyophilized powders were determined using an Aerosizer LD (Amherst Process Instruments Inc.). Data were collected over ˜70 seconds under high shear force (˜3.4 kPa) using a 700 μm nozzle.
The particle size was determined from the lyophilized powder using particle time-of-flight analysis. The particle mass mean aerodynamic diameter indentified using this analytical method was 1.0±0.1 μm, which is an ideal particle size for accessing the lung periphery.
Aerodynamic size distribution of the lyophilized powder was obtained by analyzing the time of flight measurements from an Aerosizer LD (Amherst Instruments) equipped with a 700 μm and operating 4 psi. […]

[4] = Dissolution of insulin particles in PBS (pH 7.4); format: physicochemical; settings: PBS pH 7.4, 37 °C, FIG. 38
Experimental: Approximately 6 mg of each insulin particle sample was suspended in PBS (pH 7.4). The solution was placed in a 100,000 Dalton biotech grade cellulose ester dialysis tube (Spectrum Labs, Rancho Dominiguez, Calif.) and placed in PBS solution to a final volume of 45 mL. All samples were incubated at 37° C. and shaken at 50 rpm on a shaker table. 1 mL aliquots were taken at various time points up to 8 hours from the bulk solution and replaced with 1 mL of fresh PBS. The insulin concentration was measured using a Coomassie Plus colorimetric protein quantification assay (Thermo Fisher Scientific, Waltham, Mass.). A calibration curve was used to correlate the insulin concentration with the measured absorbance, with insulin concentrations ranging between 1 and 25 μg/mL used as the standard. Dissolved mass was calculated from the measured concentration, and was then normalized to the total loaded mass to determine the percent dissolved. All experiments were performed in triplicate. Analysis of variance (ANOVA) was used to determine statistically significant differences between groups (p<0.05). Comparisons among groups were done using a Fisher's F-test.

A549 cells = assay: Cytotoxicity of budesonide formulations, CellTiter 96 MTS assay; format: cell-based; settings: up to 5 mg/mL, end of 12 hours
Experimental: In this experiment, 8×10^4 A549 cells/well were seeded in 96-well microtiter plates. At the end of the incubation period (12 h), […] of MTS reagent solution was added to each well and incubated for 3 hours at 37° C. The absorbance was measured at 490 nm using a microtiter plate reader (SpectraMax, M25, Molecular Devices Corp., CA). The percentage of viable cells with all tested concentrations was calculated relative to untreated cells.

[5] = almost all organic solvent; cited from earlier work
[6] = Cascade impaction of paclitaxel nanoparticle agglomerates (Tisch Ambient Cascade Impactor); format: physicochemical
Experimental: Aerodynamic characteristics of selected nanoparticle agglomerates were studied in vitro using a Tisch Ambient Cascade Impactor (Tisch Environmental, Inc., Ohio). The study was carried out by applying ˜20 mg powder manually into the orifice of the instrument at an air flow rate of ˜30 L/min. Cut-off particle aerodynamic diameters for each stage of the impactor were: pre-separator ([…]), stage 0 ([…]), stage 1 (5.8 mm), stage 2 (4.7 mm), stage 3 (3.3 mm), stage 4 (2.1 mm), stage 5 (1.1 mm), stage 6 (0.7 mm), stage 7 (0.4 mm) and filter (0 mm). Nanoparticle agglomerates deposited on each stage of the impactor were determined by measuring the difference in weight of filters placed on the stages. The mass median aerodynamic diameter, MMAD, and geometric standard deviation, GSD, were obtained by a linear fit of the cumulative percent less-than the particle size range by weight plotted on a probability scale as a function of the logarithm of the effective cut-off diameter.

% EF (percent emitted fraction) [1]: 70 ± 1% | % FPF (fine particle fraction) <3.3 [1]: 4 ± 2^ % | % FPF (fine particle fraction) <5.7 [1]: 21 ± 2% | GSD (geometric standard deviation) [1]: 2 ± 0.1 | MMAD (mass median aerodynamic diameter obtained from cascade impactor) [1]: 9 ± 0.1
Compound: CC(=O)Nc1c(I)c(NC(C)=O)c(I)c(C(=O)O)c1I [Diatrizoic acid (powder), Diatrizoic acid]

dispersion stability (creaming) [2]: clearly visible layer was seen at 1 hr | dispersion stability (creaming) ([2]; listed as jet milled budesonide): complete creaming
Compound: CCCC1O[C@@H]2C[C@H]3[C@@H]4CCC5=CC(=O)C=C[C@]5(C)[C@H]4[C@@H](O)C[C@]3(C)[C@]2(C(=O)CO)O1 (some centres unmarked) [milled budesonide, Budesonide]

GSD (geometric standard deviation) ([6]; cascade impactor, ~30 L/min): 2.2 ± 0.03 | MMAD (mass median aerodynamic diameter) ([6]; cascade impactor, ~30 L/min): 0.08 ± 0.02 | % RF (percent respirable fraction) <3.3 ([6]; flow rate ~30 L/min): 0% | % RF (percent respirable fraction) <5.7 ([6]; flow rate ~30 L/min): 0.39 ± 0.3% | % EF (percent emitted fraction) ([6]; lyophilized NA, flow rate ~30 L/min): 68.3 ± 6.1%
Compound: CC(=O)O[C@H]1C(=O)[C@@]2(C)[C@H]([C@H](OC(=O)c3ccccc3)[C@]3(O)C[C@H](OC(=O)[C@H](O)[C@@H](NC(=O)c4ccccc4)c4ccccc4)C(C)=C1C3(C)C)[C@]1(OC(C)=O)CO[C@@H]1C[C@@H]2O [Pure paclitaxel powder, Paclitaxel]

More lines, now with the values behind:

Compound: [H]/N=C(/N)N[C@H]1[C@H](O)[C@@H](O)[C@H](O[C@@H]2O[C@@H](C)[C@](O)(C=O)[C@H]2O[C@@H]2O[C@@H](CO)[C@H](O)[C@@H](O)[C@@H]2NC)[C@@H](N/C(N)=N\[H])[C@@H]1O [streptomycin, Streptomycin]
solubility in acetone and ethanol (Solubility): poorly soluble | solubility in water (Solubility): freely water soluble

Compound: Unprocessed: Lyophilized insulin powder from bovine pancreas (0.5% zinc content)
daero [3]: 4.117 ± 1.852 μm | insulin dissolution behaviour [4]: follows Higuchi dissolution kinetics

Compound: CC(=O)Nc1c(I)c(NC(C)=O)c(I)c(C(=O)O)c1I [Diatrizoic acid (suspen.), Diatrizoic acid]
% EF (percent emitted fraction) [1]: 75 ± 5% | % FPF (fine particle fraction) <3.3 [1]: 10 ± 7% | % FPF (fine particle fraction) <5.7 [1]: 33 ± 6% | GSD (geometric standard deviation) [1]: 2 ± 0.1 | MMAD (mass median aerodynamic diameter obtained from cascade impactor) [1]: 7 ± 1

Compound: CCCC1O[C@@H]2C[C@H]3[C@@H]4CCC5=CC(=O)C=C[C@]5(C)[C@H]4[C@@H](O)C[C@]3(C)[C@]2(C(=O)CO)O1 (some centres unmarked) [Stock budesonide, Budesonide]
cytotoxicity (A549 cells): did not show any significant cytotoxicity

Compound: CO[C@H]1/C=C/O[C@@]2(C)Oc3c(C)c(O)c4c(O)c(c(/C=N/N5CCN(C)CC5)c(O)c4c3C2=O)NC(=O)/C(C)=C\C=C\[C@H](C)[C@H](O)[C@@H](C)[C@@H](O)[C@@H](C)[C@H](OC(C)=O)[C@@H]1C [Rifampicin]
solubility in organic solvent [5]: freely soluble
